The values below come from patent US20220249462A1, “COMPOSITIONS AND METHODS USING TRIGONELLINE TO PRODUCE INTRACELLULAR NAD+” (SOCIETE DES PRODUITS NESTLE S.A., priority 2019, published 2022).

Assay [1] deals with C. elegans. Conditions: 1 mM, chronic exposure from Day 1 of adulthood, wild type N2. The protocol:
Worm lifespan tests were performed using about 100 animals per condition and scored manually every other day. Trigonelline treatment and experimental measurements were started at Day 1 of wild type N2 worm adulthood, in a regimen of chronic exposure till experiments termination.

For assay [2], the system named is C. elegans. The settings on record: 1 mM, day 8 and day 11 old worms. An excerpt: 45 to 60 worms per condition were manually scored for mobility after poking. Worms that were unable to respond to any repeated stimulation were scored as dead. […] Trigonelline treatment and experimental measurements were started at Day 1 of wild type N2 worm adulthood, in a regimen of chronic exposure til experiments termination.

The subject of assay [3] is C. elegans. Conditions: 1 mM. On the procedure: C. elegans mobility test was performed using the Movement Tracker software (Mouchiroud, L. et al. Curr Protoc Neurosci 77, 8.37.1-8.37.21 (2016)). The experiments were repeated at least twice. Trigonelline treatment and experimental measurements were started at Day 1 of wild type N2 worm adulthood, in a regimen of chronic exposure till experiments termination.

The subject of assay [4] is Human Skeletal Muscle Myotubes (HSMM). The settings on record: 6 h. On the procedure: Human primary myoblasts from two different donors were seeded in 6 well plates at a density of 200′000 cells per well in skeletal muscle growth medium (SKM-M, AMSbio). After one day, the differentiation was induced by a medium change for 4 days using differentiation culture medium (Gibco No. 31330-028). Cells were treated with isotopically labelled trigonelline (13C carbonyl; 32H on methyl) for 6 h.
Cell extracts were separated on a Vanquish UHPLC+focused LC system (Thermo Scientific) with a hydrophilic liquid chromatography (HILIC) iHILIC-Fusion(P) column (Hilicon) carrying the dimensions 150×2.1 mm, 5 μm and a guard column (iHILIC-fusion(P), Hilicon) in front. The separation of metabolites was achieved by applying a linear solvent gradient in normal phase at 0.25 mL/min flow rate and 35° C. of temperature. As mobile phase, solvent A was water with 10 mM ammonium acetate and 0.04% (v/v) ammonium hydroxide, pH ˜9.3, and solvent B was acetonitrile.
The eluting metabolites were analyzed with an Orbitrap Fusion Lumos mass spectrometer (Thermo Scientific) with a heated electrospray ionization (H-ESI) source in positive and negative mode at a resolution of 60,000 at m/z of 200. Instrument control and data analysis were conducted using Xcalibur (Thermo Scientific).

Assay [5] deals with C. elegans. Conditions: 1 mM trigonelline chloride, day 8 old worms. The protocol: Absolute quantification of the mtDNA copy number in wild type N2 worms was performed by real-time PCR. Relative values for nduo-1, and act-1 were compared within each sample to generate a ratio representing the relative level of mitochondrial DNA per nuclear genome. The average of at least two technical repeats was used for each biological data point. Each experiment was performed on at least ten independent biological samples (individual worms). Trigonelline treatment with 1 mM trigonelline chloride and experimental measurements were started at Day 1 of wild type N2 worm adulthood, in a regimen of chronic exposure till experiments termination.

The subject of assay [6] is RW1596 (myo-3p::GFP) worms. The settings on record: 1 mM trigonelline chloride, 11 day old worms. On the procedure: RW1596 (myo-3p::GFP) worms were collected at Day 1 (young adults) and at Day 11 (aged animals) for muscle integrity assessment. Worms were immobilized with tetramisole and analyzed by confocal microscopy, to assess the muscle fibers morphology shown by GFP fluorescence imaging. Trigonelline treatment with 1 mM trigonelline chloride and experimental measurements were started at Day 1 of wild type N2 worm adulthood, in a regimen of chronic exposure till experiments termination.

The test system of assay [7] is Human Skeletal Muscle Myotubes (HSMM). Nature of the assay: Colorimetric NAD+ quantification in human primary myoblasts differentiated to myotubes, 16 h treatment. In kind it is cell-based. The settings on record: different doses. The protocol:
After one day, the differentiation is induced by a medium change for 4 days. Cells were treated with synthetic trigonelline monohydrate (FIG. 4A) or with Fenugreek seed extract enriched in trigonelline containing 40.45% trigonelline (FIG. 4B) for 16 h at difference doses. NAD+ was measured using colorimetric NAD+ quantification assay (Biovision NAD+/NADH Quantitation Colorimetric Kit #k337-100).

Assay [8] has as its system C57BL/6JRj male mice. Briefly: Liver NAD+ in mice after oral gavage. In kind it is in vivo. The settings on record: equimolar of 300 mg/kg trigonelline, 120 minutes. On the procedure: 10 weeks C57BL/6JRj male mice received trigonelline (sigma #T5509) or fenugreek seed extract enriched in trigonelline (40.45% trigonelline) by oral gavage (equimolar of 300 mg/kg trigonelline, n=8/group). After 120 minutes treatment, the liver was harvested and flash frozen in liquid nitrogen. NAD+ was measured in liver using an enzymatic method adapted from Dall, M., et al., Mol Cell Endocrinol, 2018. 473:p. 245-256.

Molecules are shown by their SMILES.

In the case of `C[n+]1cccc(C(=O)O)c1` [trigonelline chloride], the “Increase of lifespan (survival curve)” value in assay [1] was determined as 21%. Also, the “Stimulated mobility score (percentage of worms responsive to a physical stimulus)” value in assay [2] is on record as “more responsive to a physical stimulus”. Further, the “Distance travelled during spontaneous mobility assay compared to control” value in assay [3] (advanced aging phase) was “significantly increased”. For the same compound, the “Mean speed during spontaneous mobility assay compared to the control” value in assay [3] (from day 1 adulthood) is given as “increased the mean speed”.

As to `C[n+]1cccc(C(=O)[O-])c1` [trigonelline (13C-carbonyl, C2H3), reference compound], the “[13C]-isotopic enrichment of NAD+ (% of 13C-enrichment)” value in assay [4] (500 μM labelled trigonelline, compared to NAD+ in baseline conditions, corrected for natural abundance) was 45%.

Consider `C[n+]1cccc(C(=O)[O-])c1` [trigonelline, 1-methylpyridin-1-ium-3-carboxylate], for which the “Mitochondrial (nduo-1) relative to nuclear (act-1) DNA ratio compared to control” value in assay [5] is on record as “higher than in the control group”. The “NAD+ levels relative to control” value in assay [4] (500 μM, human myotubes from 2 donors, LC-MS) is “enhancement of NAD+ levels”. Besides, the “Myofibrillar structure (GFP-tagged myosin morphology) compared to age matched control” value in assay [6] is “improved more organized myofibrillar structure”.

Consider `C[n+]1cccc(C(=O)[O-])c1` [chemically synthesized trigonelline, trigonelline monohydrate], for which, in assay [7], the “NAD+ content compared to the control” value was “significant increase in NAD+ content”. The “NAD+ content in the liver compared to the control” value in assay [8] is listed as “significant increase in NAD+ content in the liver”.
